According to a melting point compilation (Tetko et al.; mined from patent text by program, amines drawn as free bases though some values may be those of a salt):

| melting point [°C] | Compound |
| --- | --- |
| 201 to 202 | O=C1N(Cc2ccc(Br)cn2)c2ccccc2C12COc1cc3c(cc12)OCCO3 (stereo not given) |
| 95 to 98 | Cc1cc(Cc2ccccc2)nc(Nc2ccc(-n3ccnc3CO)cc2)n1 |
| 142 to 144 | CCOC(=O)C1=C(C)NC(COCCN2C(=O)c3ccccc3C2=O)=C(C(=O)OCC)C1c1ccccc1Cl (stereo not given) |
| 107 to 108 | COc1ccc(C=C2CCN(C(=O)OCc3ccccc3)CC2)cc1[N+](=O)[O-] |
| 58 to 60 | CCCSc1nc(-c2ccc(OC)cc2)c(-c2ccc(OC)cc2)s1 |
| 78 | CN1C(C)(C)CC(O)C(O)C1(C)C (stereo not given) |
| 274 to 276 | O=c1[nH]c2cc(Cl)cc(Cl)c2c(=O)n1Cc1cccc2ccccc12 |
| 177 to 178 | Clc1cnc2cnc(Cl)nc2c1 |
| 101 to 105 | CNC1CCN(C(=O)CC2=C(n3nc(-c4c(-c5ccccc5)nn5ccccc45)ccc3=O)CCCC2)CC1 |
| 205 to 206 | Cc1nc(-n2cnn(Cc3ccc(F)cc3)c2=O)sc1C(=O)NCc1cnn(C)c1 |
| 109 to 110 | C=C(c1ccccc1)c1ccc(N)c(N)c1 |
| 76 to 78 | CCOCC1(O)CCN(c2ccc(N3C[C@H](CNC(C)=O)OC3=O)cc2F)CC1 |
| 203 to 204 | CN1CCN(c2cccc3c2C[C@H](NC(=O)c2ccc(C(F)(F)F)cc2)CC3)CC1 |
| 40 to 41 | OCCCc1conc1-c1ccc(F)c(Br)c1 |
| 210 to 214 | Nc1ccc(C(=O)c2ccncc2)cc1N |
| 216 to 217 | O=C(O)c1cccc(-c2cccc(Oc3cccc(Cl)c3Cl)n2)c1 |
| 162 | COC(=O)[C@H]1CC[C@H](Oc2ccc(C(=O)O)cc2)CC1 |
| 157 to 158 | O=C(NCC(O)c1ccccc1)c1ccc2n1Cc1ccccc1N(C(=O)COc1ccc(Cl)cc1)C2 (stereo not given) |
| 65 to 73 | COc1cccc(CNc2nccc(-c3cc(N4CCN(CCCN5CCOCC5)CC4)c4cc(OC)ccc4c3)n2)c1 |
| 167 to 172 | COc1ccc(Cn2ncnc2CN2C(=O)c3ccccc3C2=O)cc1 |
| 70.8 to 73 | CCN(CC)C(=O)/C=C(\C)c1ccc(OC(C)c2ccccc2)c2oc(C(C)=O)cc12 (stereo not given) |
| 212 to 214 | NC(=O)c1ccc(-c2ccc3ncn(Cc4ccc5ncccc5c4)c3n2)cc1Cl |
| 222 to 224 | COc1cc(C(C)C)ccc1C1(NC(C)=O)C(=O)c2ccccc2C1=O |

| melting point [°C] | Compound |
| --- | --- |
| 172 | CN1C(=O)NC(Cc2ccccc2)C1=O (stereo not given) |
| 191 to 192 | COc1cc(OCC(CO)CO)c(-c2cccs2)cc1C=CC(=O)c1ccc(S(N)(=O)=O)cc1 |
| 186 | Cc1ccc2[nH]c3c(cc(-c4ccc(O)cc4)c(=O)n3C)c2c1 |
| > 300 | COc1ccc(COc2cccc(-c3cnc4[nH]cc(C(=O)C(C)(C)C)c4n3)c2)cc1 |
| 206 to 209 | CC1c2cnc3ccc(O[Si](C)(C)C(C)(C)C)cc3c2C(CO[Si](C)(C)C(C)(C)C)C(O)C1O (stereo not given) |
| 222 to 224 | C#CCn1c(C#N)ccc1-c1ccc2c(c1)C(C)(C)OC(=O)N2 |
| 129 to 130 | COC(=O)C1N2C(=O)C(NC(=O)COc3ccccc3)C2SCC1(C)Nc1ccccc1 (stereo not given) |
| 98 to 100 | O=C(O)CC1=C(Cc2ccc3c(Cl)cccc3c2)C(=O)CCC1 |
| 124 to 127 | CC(C)(C)OC(=O)CCN(CCC12CC3CC(CC(C3)C1)C2)C(=O)NCCCc1ccncc1 |
| 112 to 114 | CN(C(=O)N1CCOCC1)c1ccc(OCC(=O)N[C@@H](CC(N)=O)C(=O)N[C@@H](Cc2ccccc2)[C@H](O)C(=O)N2CCC[C@H]2C(=O)NC(C)(C)C)cc1 |
| 261 to 264 | Fc1ccc(-c2nc3ccc(N4CCC(N5CCCC5)CC4)nn3c2-c2ccnc3[nH]ccc23)cc1 |
| 116 to 119 | O=C(NC(Cc1ccccc1)C(=O)O)c1ccc(-c2ccccc2OC2OC(CO)C(O)C(O)C2O)cc1 (stereo not given) |
| 90 | CCn1c(N)c(-c2nccn2COCC[Si](C)(C)C)c(=O)c2ccc(Cl)nc21 |
| 189 to 191 | COc1cccc(Nc2ccc(Nc3ncnc4cc(-c5ccccc5)sc34)cc2)c1 |
| 78 to 82 | C[C@@H](c1ccc(F)cc1)N1Cc2cncn2C(C)(c2ccc(C#N)cc2)C1=O (stereo not given in full) |
| 216 to 218 | O=C1NC(=O)C(c2ccc(-c3ccccc3)o2)O1 (stereo not given) |
| 82 to 84 | CCOC(=O)/C=C(/c1ccc(Cl)cc1)c1cccc(OC)c1OC |
| 138 to 142 | CC(=O)CC(=O)C=Cc1ccc2cc[nH]c2c1 |
| 223 to 224 | Nc1nnc(-c2ccc3occ(-c4ccc(OC(F)(F)F)cc4)c3c2)o1 |
| 99 to 100 | C=CCc1ccc2oc(C(=O)OCC)cc(=O)c2c1O |
| 209 to 211 | CCCc1nc2c(N)nc3cccnc3c2n1CC1(O)CCCCC1 |
| 117 | CC(C)(C)OC(=O)n1cnc2c(N)cccc21 |
| 139 to 140 | O=C(O)C1c2ccccc2OCc2ncccc21 (stereo not given) |

| melting point [°C] | Compound |
| --- | --- |
| 204 to 206 | CCOC(=O)c1nc(O)sc1-c1ccncc1 |
| 147 to 148 | O=Cc1cc(O)c(OCc2ccccc2)cc1O |
| 82 | C(=Cc1ncon1)c1ccccc1 |
| 140 | COc1ccc(C(=C2CCN(CCc3c(C)nc4scc(C)n4c3=O)CC2)c2ccc(F)cc2)cc1 |
| 82 to 85 | COCC#Cc1ccc(C(CC2CCCC2)C(=O)O)cc1 (stereo not given) |
| 204 | O=[N+]([O-])c1ccc(Sc2ccc(O)c(Cl)c2Cl)cc1 |
| 100 to 101 | O=C(O)Cc1ccc(-n2cccn2)c(Br)c1 |
| 64 to 66 | CCOC(=O)C(C)Oc1ncn(-c2ccc(Br)cc2)n1 (stereo not given) |
| 85 to 86 | CCOC(=O)N1CCN(c2c(F)cc([N+](=O)[O-])c(F)c2COC)CC1 |
| 96 to 97 | O=C1NC(=O)C(CCCCCc2ccc(O)cc2)O1 (stereo not given) |
| 107 to 109 | COc1ccc([C@@H]2O[C@H](CCC(=O)O)C(=O)N(Cc3ccccc3)c3ccccc32)cc1 (relative stereo) |
| 124 to 125 | Cc1c(Br)ccc2c1oc1ccccc12 |
| 171 to 172 | O=S1(=O)N=C(O)C(O)=N1 |
| 133 to 134 | CCOC(=O)C(C#N)c1ncccc1[N+](=O)[O-] (stereo not given) |
| 198 to 200 | O=c1c2c(OCC3CO3)cc(OCC3CO3)cc2oc2ccc3ccccc3c12 (stereo not given) |
| 189 to 190 | CN(C(C(=O)NO)C(C)(C)CN1C(=O)c2ccccc2C1=O)S(=O)(=O)c1ccc(Oc2ccccc2)cc1 (stereo not given) |
| > 230 | COCCNC(=O)c1ccc2c(c1)C(=NNc1ccc(S(N)(=O)=O)cc1)C(=O)N2 |
| 184 to 186 | CC1CC(=O)NN=C1c1ccc(-n2ccc(CO)c2)cc1 (stereo not given) |
| 155 | O=C(NCCc1ccccn1)c1ccccc1-c1ccccc1CN1C(=O)c2ccccc2C1=O |
| 168 | OC(c1ccccc1)(c1ccccc1Cl)c1nccn1Cc1ccccc1 (stereo not given) |
| 159 to 163 | O=C(CC1CCCCC1)Nc1c(Cl)ccc2nc(CCCNCCCO)ccc12 |
| 117 to 119 | CC(C)(C)OC(=O)N1CC(=NO)C2(CC2)C1 |

| Compound | melting point [°C] |
| --- | --- |
| CC(C)(C)OC(=O)c1ncn2c1[C@@H]1CCN1C(=O)c1c(Cl)cccc1-2 | 235 to 236 |
| NCCc1c[nH]c2ccc(C(N)=O)cc12 | 173 to 176 |
